From patent publication US20230201172A1, “METHODS OF TREATING CFTR RELATED DISEASES AND DISORDERS” (ARIEL PRECISION MEDICINE, INC., priority 2020, published 2023)
Where two headings read alike, the source gives them in different places.

Assays:
F508del-CFTR = target: T1, F508del-CFTR (Homo sapiens, UniProt P13569, DEL508-508); experiment: Ussing chamber electrophysiology, acute potentiation of F508del-CFTR current in corrected CF-hBE cells; assay type: cell-based; details: for Maximum efficacy (Emax), relative efficacy: normalized to response of 1 μM ivacaftor (=1.0), cells treated with the three correctors
T1 construct: endogenous in cells; host or cells: CF-hBE (primary human bronchial epithelial cells from CF donors)
T1 sequence (P13569 with tags, fused parts or gaps DEL508-508): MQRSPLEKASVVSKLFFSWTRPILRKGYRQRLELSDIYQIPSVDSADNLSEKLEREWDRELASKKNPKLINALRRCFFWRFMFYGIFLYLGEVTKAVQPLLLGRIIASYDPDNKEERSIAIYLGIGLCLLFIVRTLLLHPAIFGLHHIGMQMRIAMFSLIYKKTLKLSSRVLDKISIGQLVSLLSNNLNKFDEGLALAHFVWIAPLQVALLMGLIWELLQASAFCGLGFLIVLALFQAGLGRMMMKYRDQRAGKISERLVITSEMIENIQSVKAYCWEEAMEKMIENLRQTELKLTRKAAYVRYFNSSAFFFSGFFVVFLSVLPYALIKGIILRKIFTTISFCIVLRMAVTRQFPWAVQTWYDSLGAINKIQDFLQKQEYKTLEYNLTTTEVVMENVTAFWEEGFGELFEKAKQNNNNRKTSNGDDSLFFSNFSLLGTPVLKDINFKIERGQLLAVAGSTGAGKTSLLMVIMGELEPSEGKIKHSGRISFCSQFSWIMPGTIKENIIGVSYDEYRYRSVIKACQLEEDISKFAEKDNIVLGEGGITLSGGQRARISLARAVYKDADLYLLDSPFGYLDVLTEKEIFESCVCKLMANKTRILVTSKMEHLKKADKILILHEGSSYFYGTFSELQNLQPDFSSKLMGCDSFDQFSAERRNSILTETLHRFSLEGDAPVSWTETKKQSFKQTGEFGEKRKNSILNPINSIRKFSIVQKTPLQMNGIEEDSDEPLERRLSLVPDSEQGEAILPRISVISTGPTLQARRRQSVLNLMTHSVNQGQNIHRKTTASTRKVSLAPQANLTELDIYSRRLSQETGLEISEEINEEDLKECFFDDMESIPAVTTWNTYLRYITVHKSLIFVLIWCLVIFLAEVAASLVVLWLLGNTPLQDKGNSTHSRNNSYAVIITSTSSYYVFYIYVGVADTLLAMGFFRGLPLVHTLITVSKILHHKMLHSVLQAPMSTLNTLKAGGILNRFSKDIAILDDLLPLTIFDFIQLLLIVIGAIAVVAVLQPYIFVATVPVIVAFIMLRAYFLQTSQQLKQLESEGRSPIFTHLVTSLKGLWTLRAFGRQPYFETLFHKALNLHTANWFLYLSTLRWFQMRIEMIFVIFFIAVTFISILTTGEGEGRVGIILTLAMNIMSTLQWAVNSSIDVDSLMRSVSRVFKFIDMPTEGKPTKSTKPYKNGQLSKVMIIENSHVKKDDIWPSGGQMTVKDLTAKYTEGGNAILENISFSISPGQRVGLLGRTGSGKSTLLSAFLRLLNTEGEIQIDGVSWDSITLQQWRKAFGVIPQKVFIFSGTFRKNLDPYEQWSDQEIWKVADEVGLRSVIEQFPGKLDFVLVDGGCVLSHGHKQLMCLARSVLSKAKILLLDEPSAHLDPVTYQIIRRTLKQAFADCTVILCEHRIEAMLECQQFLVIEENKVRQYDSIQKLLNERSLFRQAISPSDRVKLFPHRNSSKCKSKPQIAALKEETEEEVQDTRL
Procedure: Methods: […] Electrophysiology assays were conducted in an Ussing chamber in which corrected cells were treated with ascending concentrations of […] (0.001-10 μM) or ivacaftor (0.0003-1.0 μM). […] FIG. 1 legend: Ussing assay dose-response curves for potentiation of F508del-CFTR current following acute addition of ivacaftor (0.0003-1.0 μM, black circles) and […] (0.001-10 μM, blue squares labeled FDL176). Cells were corrected with lumacaftor (left), tezacaftor (middle), or FDL169 (right), each at 3 μM. For each corrector treatment group, dose response data for ivacaftor and […] were normalized to the response following activation with 1 μM ivacaftor (with matched corrector). Error bars represent SEM. CF-hBE=cystic fibrosis primary human bronchial epithelial cells; CFTR=cystic fibrosis transmembrane conductance regulator; SEM=standard error of the mean.

G551D variant = G551D variant (Homo sapiens, UniProt P13569, G551D); experiment: Potentiator EC50 for the G551D CFTR variant; assay type: cell-based
G551D variant, sequence (P13569 whole entry G551D): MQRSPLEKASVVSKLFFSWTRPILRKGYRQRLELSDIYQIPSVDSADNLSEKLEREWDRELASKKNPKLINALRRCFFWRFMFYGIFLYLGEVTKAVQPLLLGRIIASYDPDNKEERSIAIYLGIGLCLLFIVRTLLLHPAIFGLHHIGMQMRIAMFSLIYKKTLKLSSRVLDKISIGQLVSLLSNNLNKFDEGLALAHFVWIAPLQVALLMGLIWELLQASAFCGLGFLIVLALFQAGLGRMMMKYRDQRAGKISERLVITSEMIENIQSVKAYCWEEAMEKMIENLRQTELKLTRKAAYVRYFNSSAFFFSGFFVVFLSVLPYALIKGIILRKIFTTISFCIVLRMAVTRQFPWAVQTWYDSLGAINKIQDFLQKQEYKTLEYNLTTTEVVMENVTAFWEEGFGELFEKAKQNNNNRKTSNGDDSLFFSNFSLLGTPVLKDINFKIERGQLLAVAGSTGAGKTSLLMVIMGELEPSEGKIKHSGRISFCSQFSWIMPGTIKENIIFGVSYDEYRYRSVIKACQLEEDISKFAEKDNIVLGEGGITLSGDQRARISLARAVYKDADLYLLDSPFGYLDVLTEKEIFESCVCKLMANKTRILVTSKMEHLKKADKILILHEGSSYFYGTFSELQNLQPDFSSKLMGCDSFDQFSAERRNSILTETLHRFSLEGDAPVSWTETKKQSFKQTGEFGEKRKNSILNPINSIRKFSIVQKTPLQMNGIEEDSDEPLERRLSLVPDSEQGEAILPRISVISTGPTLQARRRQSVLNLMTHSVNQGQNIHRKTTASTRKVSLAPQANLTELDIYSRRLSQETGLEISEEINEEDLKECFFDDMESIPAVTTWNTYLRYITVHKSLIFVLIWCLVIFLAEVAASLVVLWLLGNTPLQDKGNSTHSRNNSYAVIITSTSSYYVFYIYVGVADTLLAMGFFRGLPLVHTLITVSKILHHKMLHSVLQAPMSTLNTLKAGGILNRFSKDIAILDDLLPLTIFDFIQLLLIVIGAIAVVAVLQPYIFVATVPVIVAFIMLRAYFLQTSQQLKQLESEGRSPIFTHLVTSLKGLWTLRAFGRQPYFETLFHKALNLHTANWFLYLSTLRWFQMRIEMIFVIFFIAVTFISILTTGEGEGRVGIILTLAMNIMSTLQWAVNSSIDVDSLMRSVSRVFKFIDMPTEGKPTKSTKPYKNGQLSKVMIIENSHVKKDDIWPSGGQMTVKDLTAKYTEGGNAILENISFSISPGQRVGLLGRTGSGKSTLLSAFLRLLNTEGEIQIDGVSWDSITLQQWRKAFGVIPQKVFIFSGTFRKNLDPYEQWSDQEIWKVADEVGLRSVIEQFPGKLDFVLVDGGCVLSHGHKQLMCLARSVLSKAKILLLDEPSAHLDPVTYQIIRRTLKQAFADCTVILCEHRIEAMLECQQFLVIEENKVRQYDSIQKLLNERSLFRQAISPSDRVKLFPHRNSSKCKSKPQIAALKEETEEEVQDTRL

[1] = Total plasma Cmin at steady state, human dose; assay type: in vivo
[2] = NOAEL exposure in rats vs human dose
[3] = NOAEL exposure in dogs vs human dose
[4] = cystic fibrosis patients with comorbid pancreatic diseases (Carrion et al. 2018); cited from earlier work

SMILES | EC50 (F508del-CFTR; CF-hBE cells corrected with FDL169 3 μM, acute addition (<1 hour), read-out: EC50, potentiation of F508del-CFTR current) | EC50 (F508del-CFTR; CF-hBE cells corrected with lumacaftor 3 μM, acute addition (<1 hour), read-out: EC50, potentiation of F508del-CFTR current) | EC50 (F508del-CFTR; CF-hBE cells corrected with tezacaftor 3 μM, acute addition (<1 hour), read-out: EC50, potentiation of F508del-CFTR current) | Maximum efficacy (Emax), relative efficacy (F508del-CFTR) | EC50 (G551D variant) | Total plasma Cmin at steady state ([1]; 30 mg dose) | Total plasma Cmin at steady state ([1]; 50 mg dose) | Safety margin of NOAEL exposure over a 50 mg human dose [2] | Safety margin of NOAEL exposure over a 50 mg human dose [3] | EC50 (F508del-CFTR; corrector treated CF-hBE cells (lumacaftor, tezacaftor, FDL169), acute addition, read-out: EC50 range, potentiation of F508del-CFTR current) | Recurrence rate of pancreatitis [4]
Cl.O=S(=O)(c1ccccc1)c1ccc2nc(NCc3ccc(-c4ccccn4)cc3)nn2c1 [X0176, 6-(phenylsulfonyl)-N-(4-(pyridin-2-yl)benzyl)-[1,2,4]triazolo[1,5-a]pyridin-2-amine hydrochloride] | 0.204 ± 0.0244 µM | 0.133 ± 0.0181 µM | 0.202 ± 0.0446 µM | 1.0 | 2.6 µM | 2.18 µM | 3.17 µM | 3.4 fold | 1.1 fold |  | 
CC(C)(C)c1cc(C(C)(C)C)c(NC(=O)c2c[nH]c3ccccc3c2=O)cc1O [ivacaftor, reference compound] |  |  |  | 1.0 |  |  |  |  |  | 0.0036 to 0.0091 µM | decreased recurrence rate of pancreatitis
